Columns and labels:
Assay type in all cases: cell-based, human
Urea = Urea production after 72 h by urea nitrogen (BUN) colorimetric assay, PHH model, Example 2; details: FFA+TNFα
Procedure: (§1) PHH from two healthy human donors (Lonza, TRL) were seeded on day 0 at density of 6e04 cells in 96 well optical microplates (Thermofisher) in hepatocyte plating media (William's E medium, WEM) (Gibco) supplemented with 10% heat-inactivated FBS (Atlanta Bio), 2 mM Glutamax (Gibco), and 0.2% Primocin (InVivoGen) and incubated for 6 hours at 37° C., 5% CO2. After 6 hours, cells were washed twice and incubated overnight at 37° C., 5% CO2 with Hepatocytes defined medium (Corning) supplemented with 2 mM Glutamax (Gibco), and 1× Penicillin/Streptomycin. On day 1, cells were washed twice and incubated for 24 h in the hepatocyte culture media in the same conditions described above.
(§2) On day 2, cells were washed twice with DPBS 1× (Gibco) to remove excess amino acids and maintained in pretreatment media (1×HMDB, a defined custom amino acid concentration based on the mean physiological concentrations in blood, in WEM±supplemental amino acids): • a. Amino acid-free WEM (US Biologicals) supplemented with 11 mM Glucose (Sigma), 0.272 mM Sodium Pyruvate (Sigma), 1× P/S (Gibco) and containing 1×HMDB with no supplemental amino acids; or • b. The same media described above 1×HMDB WEM with supplemental amino acid and amino acid combination treatments at various concentrations. Cells were maintained in the defined media (a. & b.) for 24 hours at 37° C., 5% CO2. The HMDB values are published in the Human Metabolome Database (Wishart D S, Tzur D, Knox C, et al., HMDB: the Human Metabolome Database. Nucleic Acids Res. 2007 January; 35 (Database issue):D521-6. 17202168; which is hereby incorporated by reference in its entirety). Co-Treatment with Free Fatty Acids and Amino Acids Combination
(§3) After 24 h pre-treatment, cells maintained in the pretreatment media±supplemental amino acids (section (a. & b.) described above) were exposed to free fatty acids (FFA) at 250 uM with a ratio of 2:1 (Oleate:Palmitate) supplemented with TNF-α (Thermofisher) at 1 ng/ml. Cells were incubated with the FFAs mixture (FFAs+TNF-α)±supplemental amino acids treatments for 24 hours at 37° C., 5% CO2. After 24 hours incubation, media was removed for cytokine analysis and replaced by fresh media containing the same conditions described above (FFAs mixture±supplemental amino acids treatments). Cells were incubated for an additional 48 hours for a total of 72 hours of FFA and TNF-α stimulation. After 72 hours of incubation, media was removed for albumin and urea analysis and the cells were fixed for nuclei and lipid staining.
Urea was measured as an indicator of hepatocytes functionality by urea nitrogen direct assay (StanBio). Cell supernatant was added to the BUN color reagent and BUN acid reagent at 1(color):2(acid) ratio. Incubate the cell supernatant with BUN reagent for 12 min at 100° C. then for 5 min at 4° C. Read absorbance at 520 nm. Data was normalized to the control. Data is reported as median fold change from control, statistical analysis was done using t-Test.

Albumin = Albumin secretion after 72 h by ELISA, PHH model, Example 2; details: FFA+TNFα
Procedure: as §1, §2, §3
Albumin secretion was measured as a functionality test in primary human hepatocytes. Albumin was measured by ELISA (Human Albumin ELISA Quantitation set, Bethyl Laboratories) at 1/200 dilution in the sample diluent (Bethyl Laboratories). Data is reported as median fold change from control, statistical analysis was done using t-Test.

M1 macrophages = assay: Seahorse XF real-time ATP rate assay in LPS-treated M1 macrophages, Example 6
Procedure: Primary human PMBC derived macrophages were seeded on day 0 at 2.0E4 cells per well in a Seahorse […] Cell Culture Microplate V3-PS TC-Treated plate (Agilent) coated with 0.1 mg/mL Poly-D-Lysine (Trevigen) in Dulbecco's Modified Eagle Medium (DMEM) (Gibco) supplemented with penicillin-streptomycin (Gibco) and 10% heat inactivated fetal bovine serum (HI-FBS) (Atlanta Bio) and incubated overnight at 37° C., 5% CO2. On day 1, cells were washed once with 150 uL per well DPBS (Gibco) and treated with 100 uL of: • a. Amino acid free DMEM (US Biologicals) containing a defined custom amino acid concentration based on the mean physiological concentrations in blood based on values published in the Human Metabolome Database (HMDB), with 6 mM glucose, 1 mM sodium pyruvate, 10 mM HEPES (Sigma), and penicillin-streptomycin (Gibco); or • b. The same media described above with supplemental amino acid and amino acid combination treatments at various concentrations. […] Control wells were treated with 0.15 ng/mL LPS, or phosphate buffered saline (PBS). On day 3, the supernatant was collected and immediately frozen in a -80° C. freezer. Cells were analyzed for total ATP production rate, glycolytic ATP production rate, and mitochondrial ATP production rate using a commercially available kit (Agilent Seahorse XF Real-Time ATP Rate Assay Kit) according to manufacturer-supplied protocol on a Seahorse XFe instrument. A custom assay medium (amino acid free DMEM/F12 without phenol red or sodium bicarbonate (US Biologicals) containing a defined custom amino acid concentration based on the mean physiological concentrations in blood based on values published in the Human Metabolome Database (HMDB), with 10 mM XF glucose (Agilent), 1 mM XF pyruvate (Agilent), and 5 mM HEPES (Sigma) was used. Buffer factor for the custom assay medium was determined according to manufacturer-supplied protocol. Following the assay, cells were washed twice with PBS and fixed with 4% paraformaldehyde.

[1] = 30× LIRQNacSCar (7.5 mM Nac and Car) or 7.5 mM Nac vs LPS vehicle control

Question: Which results are given for `CC(=O)N[C@@H](CS)C(=O)O` [Nac, N-acetylcysteine]?
Answer: urea production (in words) (Urea; hepatocyte donor 1): No changes in urea production; urea production (in words) (Urea; hepatocyte donor 2): slightly induce urea production; albumin secretion (in words) (Albumin; hepatocyte donor 1): slightly decreased albumin secretion; albumin secretion (in words) (Albumin; hepatocyte donor 2): induce albumin secretion; glycolytic ATP production rate (in words) (M1 macrophages; [1]): significantly decreased glycolytic, mitochondrial, and total ATP rate measurements; mitochondrial ATP production rate (in words) (M1 macrophages; [1]): significantly decreased glycolytic, mitochondrial, and total ATP rate measurements; total ATP rate (in words) (M1 macrophages; [1]): significantly decreased glycolytic, mitochondrial, and total ATP rate measurements; Glycolytic ATP Rate, Median Fold Change from Vehicle (Log2) (M1 macrophages; LPS 0.15 ng/mL, 7.5 mM): −0.461 Log2; Mitochondrial ATP Rate, Median Fold Change from Vehicle (Log2) (M1 macrophages; LPS 0.15 ng/mL, 7.5 mM): −0.196 Log2; Total ATP Rate, Median Fold Change from Vehicle (Log2) (M1 macrophages; LPS 0.15 ng/mL, 7.5 mM): −0.2744 Log2

Reference: patent US20190388377A1, “COMPOSITIONS AND METHODS FOR THE TREATMENT OF LIVER DISEASES AND DISORDERS” (AXCELLA HEALTH INC., priority 2018, published 2019)
